Our source for the TGI values is PubChem BioAssay (NCI).

Among the test systems are OVCAR-4 ovarian; MOLT-4 leukemia; SNB-75 CNS; HS 578T breast; MALME-3M melanoma; MDA-MB-231 breast; SK-OV-3 ovarian; IGROV1 ovarian; RXF 393 renal; A498 renal; OVCAR-8 ovarian; HCT-15 colon; SN12C renal; OVCAR-5 ovarian; EKVX NSCLC; UO-31 renal; CCRF-CEM leukemia; SK-MEL-28 melanoma; NCI-H460 lung.
Test in all cases: growth of human tumour cells (NCI), 48 h

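Dose response: 5 concentrations. Exposure: 48 h. Format: 96-well plates. Endpoint: linear interpolation; highest concentration if not reached. At the TGI there is no net growth.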 Where only a bound is given, the exact number is not on record here.

Consider `O=C(CCCN1CCC2(CC1)CC(=O)N(N1CCCCCC1)C2=O)c1ccc(F)cc1`, for which the TGI with OVCAR-4 ovarian, in the assay with MOLT-4 leukemia, with SNB-75 CNS, in the assay with HS 578T breast, in the assay on MALME-3M melanoma and in the assay with MDA-MB-231 breast was > 100 µM throughout. Further, the TGI was > 100 µM in the assay on SK-OV-3 ovarian; > 100 µM in the assay on IGROV1 ovarian; 97.9 µM in the assay on RXF 393 renal; > 100 µM in the assay on A498 renal; 34.7 µM with OVCAR-8 ovarian; > 100 µM in the assay with HCT-15 colon. The TGI in the assay on SN12C renal, in the assay with OVCAR-5 ovarian, in the assay on EKVX NSCLC, with UO-31 renal, in the assay on CCRF-CEM leukemia and in the assay with SK-MEL-28 melanoma was > 100 µM each time.

Consider `O=C1/C(=C/c2c(Cl)[nH]c3ccccc23)c2ccccc2N1c1ccccc1`, for which the TGI in the assay with MOLT-4 leukemia came out at 31.8 µM; with SNB-75 CNS it was 37.8 µM; in the assay on NCI-H460 lung it was 14.4 µM; in the assay with HS 578T breast it was 30.2 µM; in the assay on MALME-3M melanoma, 18.6 µM; in the assay with MDA-MB-231 breast, 29.6 µM. For the same compound, the TGI in the assay with SK-OV-3 ovarian was determined as 14.2 µM; in the assay on IGROV1 ovarian it was 39.1 µM; in the assay with RXF 393 renal, 31.1 µM; with A498 renal it was 40.8 µM; with OVCAR-8 ovarian it was 20.4 µM; in the assay on HCT-15 colon it was 15 µM. Further, the TGI came to 20.3 µM with SN12C renal; 81.9 µM with OVCAR-5 ovarian; 27.2 µM in the assay on EKVX NSCLC; 37.1 µM in the assay with UO-31 renal; 31.9 µM in the assay on CCRF-CEM leukemia; 23.8 µM with SK-MEL-28 melanoma.

As to `N#Cc1[nH]c(=O)n(-c2cccc3ccccc23)c1N`, the TGI in the assay with OVCAR-4 ovarian, with MOLT-4 leukemia, in the assay on NCI-H460 lung, with HS 578T breast, in the assay on MALME-3M melanoma and in the assay on MDA-MB-231 breast was > 10 µM each time. In addition, the TGI in the assay with SK-OV-3 ovarian, in the assay with IGROV1 ovarian, with RXF 393 renal, in the assay with A498 renal, in the assay on OVCAR-8 ovarian and in the assay on HCT-15 colon was > 10 µM in each case. For the same compound, the TGI in the assay with SN12C renal, in the assay with OVCAR-5 ovarian, in the assay with EKVX NSCLC, in the assay with CCRF-CEM leukemia and in the assay on SK-MEL-28 melanoma was > 10 µM each time.

On to `Cc1ccc(S(=O)(=O)NNC2(NS(=O)(=O)c3ccc(Cl)cc3)C(Cl)=C(Cl)C(=O)c3ccccc32)cc1` (stereo not drawn), for which the TGI in the assay with OVCAR-4 ovarian is 30.1 µM; in the assay with MOLT-4 leukemia, > 100 µM; in the assay on NCI-H460 lung, 38.1 µM; in the assay with HS 578T breast, 54.8 µM; in the assay with MALME-3M melanoma it was 33.2 µM; in the assay with MDA-MB-231 breast it was 44.9 µM. Also, the TGI in the assay on SK-OV-3 ovarian came out at 32.2 µM; in the assay on IGROV1 ovarian, 34.3 µM; in the assay with RXF 393 renal it was 31.1 µM; in the assay with A498 renal, 36.7 µM; in the assay on OVCAR-8 ovarian, 87.8 µM; in the assay with HCT-15 colon it was 83.8 µM. The TGI in the assay on SN12C renal came to 31.6 µM; in the assay with OVCAR-5 ovarian, 33.4 µM; with EKVX NSCLC, 28.9 µM; in the assay with UO-31 renal, 42.5 µM; in the assay with CCRF-CEM leukemia, 63 µM; in the assay on SK-MEL-28 melanoma, 60.7 µM.

On to `O=S(=O)(O)c1ccc2c(N=Nc3ccc(F)cc3)c(O)c(S(=O)(=O)O)cc2c1`, for which the TGI with OVCAR-4 ovarian, in the assay on MOLT-4 leukemia, with SNB-75 CNS, with HS 578T breast, with MALME-3M melanoma and in the assay on MDA-MB-231 breast was > 100 µM in each case. The TGI in the assay with SK-OV-3 ovarian, in the assay on IGROV1 ovarian, in the assay on RXF 393 renal, in the assay with A498 renal, in the assay with OVCAR-8 ovarian and in the assay on HCT-15 colon was > 100 µM each time. Also, the TGI with SN12C renal, in the assay on OVCAR-5 ovarian, with EKVX NSCLC, in the assay with UO-31 renal, in the assay with CCRF-CEM leukemia and in the assay with SK-MEL-28 melanoma was > 100 µM in each case.

Consider `COC(=O)C1(Cc2ccc3c(c2)CCC3)Cc2ccc3c(c2C1)CCC3` (stereo not drawn), for which the TGI in the assay with OVCAR-4 ovarian is 99.1 µM; with MOLT-4 leukemia, > 100 µM; in the assay with SNB-75 CNS, > 100 µM; with NCI-H460 lung, 73.2 µM; in the assay with HS 578T breast it was 45 µM; in the assay with MALME-3M melanoma it was 42 µM. Also, the TGI was 45 µM in the assay on MDA-MB-231 breast; > 100 µM in the assay on SK-OV-3 ovarian; 74.6 µM in the assay on IGROV1 ovarian; 83.3 µM with RXF 393 renal; 72.2 µM with A498 renal; > 100 µM in the assay on OVCAR-8 ovarian. In addition, the TGI with HCT-15 colon is > 100 µM; in the assay with SN12C renal, 56.3 µM; with EKVX NSCLC, > 100 µM; in the assay on UO-31 renal, 74 µM; with CCRF-CEM leukemia, > 100 µM; in the assay with SK-MEL-28 melanoma, > 100 µM.

`COc1ccc(C2(O)c3ccccc3C(=O)N(C)C2(O)c2ccc(OC)cc2)cc1` (stereo not drawn): the TGI is > 100 µM in the assay with OVCAR-4 ovarian; > 100 µM in the assay on MOLT-4 leukemia; > 100 µM in the assay on NCI-H460 lung; 29 µM in the assay on HS 578T breast; > 100 µM in the assay with MALME-3M melanoma; > 100 µM in the assay on MDA-MB-231 breast. For the same compound, the TGI in the assay on SK-OV-3 ovarian, in the assay with IGROV1 ovarian, in the assay with RXF 393 renal, in the assay with A498 renal, in the assay with OVCAR-8 ovarian and with HCT-15 colon was > 100 µM throughout. In addition, the TGI in the assay with SN12C renal, in the assay with OVCAR-5 ovarian, in the assay with EKVX NSCLC, in the assay on UO-31 renal, with CCRF-CEM leukemia and in the assay on SK-MEL-28 melanoma was > 100 µM throughout.

Consider `CN(C)CCn1c(=O)c2ccc3c4c(nn3CCN(C)C)c3cc(O)ccc3n(c1=O)c24`, for which the TGI in the assay with OVCAR-4 ovarian came to 0.392 µM; in the assay on MOLT-4 leukemia, 0.127 µM; in the assay with SNB-75 CNS, 1.42 µM; in the assay with NCI-H460 lung it was 0.254 µM; in the assay with HS 578T breast, 0.373 µM; in the assay on MALME-3M melanoma, 0.982 µM. In addition, the TGI with MDA-MB-231 breast is 0.727 µM; with SK-OV-3 ovarian, 0.74 µM; with RXF 393 renal, 0.977 µM; in the assay with A498 renal, 0.83 µM; in the assay on OVCAR-8 ovarian, 0.124 µM; in the assay on HCT-15 colon, 3.36 µM. The TGI with SN12C renal was 0.842 µM; with OVCAR-5 ovarian, 1.26 µM; in the assay on EKVX NSCLC, 0.366 µM; in the assay on UO-31 renal it was 0.675 µM; with CCRF-CEM leukemia, 0.656 µM; in the assay on SK-MEL-28 melanoma, 1.58 µM.
